Experiments:
ddy mice = assay: Acute intraperitoneal toxicity study; assay type: in vivo; conditions: 100 mgkg^-1
respiratory resistance = assay: Assay for respiratory resistance (inhibitory activity after antigen inhalation challenge, oscillation method); assay type: in vivo, inhalation-sensitized male Hartley guinea pigs; conditions: oral pretreatment every other day, 1 mgml^-1 solution; n = 7; after ovalbumin inhalation challenge; result in words (table title)
Experimental: (§1) Assay for inhibitory activity against respiratory resistance and antigen-induced bronchial hyper-responsiveness
(§2) Male Hartley guinea pigs (weighing about 300 g) were each placed in a plastic inhalation chamber. Using an ultrasonic nebulizer (NEU10B, Omron Corporation), an aerosolized solution of ovalbumin in physiological saline (10 mgml^-1) was introduced into the chamber for 10 minutes daily for 10 consecutive days to effect sensitization. The animals were used in the experiments 5 days after establishment of sensitization.
During the period from the first day of sensitization to the day before an antigen challenge, the animals were orally treated with a 1 mgml^-1 solution of FR-900506 (in ethanol/olive oil [2:78 v/v]) every other day. Control animals received the ethanol/olive oil vehicle alone in the same manner.
The experimental period was 5 days from day 1 to day 5, and the inhalation challenge with the antigen was given on day 2.
On day 1, and 30 minutes before antigen inhalation challenge on day 2, metopirone (an endogenous cortisol synthesis inhibitor) was intravenously administered (10 mgkg^-1). So that the animals could tolerate the antigen at comparatively high concentrations, chlorpheniramine maleate, an antihistaminic, was intraperitoneally administered (10 mgkg^-1) following the second dose of metopirone. […]
(§3) The results are expressed as mean ±SEM. […]

[1] = system: antigen-induced bronchial hyper-responsiveness to acetylcholine; assay: Assay for antigen-induced bronchial hyper-responsiveness to acetylcholine (PC200-Ach); assay type: in vivo, inhalation-sensitized male Hartley guinea pigs; conditions: oral pretreatment every other day, 1 mgml^-1 solution, n = 7, result in words (table title)
Experimental: as §1, §2
During the period from the first day of sensitization to the day before an antigen challenge, the animals were orally treated with a 1 mgml^-1 solution of FR-900506 (in ethanol/olive oil [2:78 v/v]) every other day. Control animals received the ethanol/olive oil vehicle alone in the same manner. […]
Guinea pigs prepared by the method described above were placed in an animal box as described above and the baseline respiratory resistance was measured. […] From the concentration-resistance curve constructed from the acetylcholine concentration and respiratory resistance data, the acetylcholine concentration necessary for increasing the respiratory resistance to twice the baseline value [i.e. PC200 -Ach (μgml^-1)] was calculated.
as §3

## C=CC[C@@H]1/C=C(\C)C[C@H](C)C[C@H](OC)[C@H]2O[C@@](O)(C(=O)C(=O)N3CCCC[C@H]3C(=O)O[C@H](/C(C)=C/[C@@H]3CC[C@@H](O)[C@H](OC)C3)[C@H](C)[C@@H](O)CC1=O)[C@H](C)C[C@@H]2OC [FR-900506]
Ddy mice
  Acute intraperitoneal toxicity, deaths: no deaths
Respiratory resistance
  Inhibitory effect on respiratory resistance: Inhibitory effect
[1]
  Inhibitory effect on antigen induced hyper-responsiveness to acetylcholine: Inhibitory effect

Reference: US5519049A, “Macrolides for the treatment of reversible obstructive airways diseases” (Fisons plc, priority 1989, dated 1996)
